In patent US20250074911A1, “MACROCYCLIC BTK INHIBITORS” (Crossfire Oncology Holding B.V., priority 2021, published 2025):
Several values for one entry are separate records, joined by “and”; a condition that tells them apart may be missing. Equal entries are not always repeated.

Experiments:
[1] = test system: REC-1 T474I cell lines; assay: Cell proliferation assay REC-1 BTK T474I knock-in cells (ATPlite, 72 hours); assay type: cell-based; settings: Homo sapiens, Rec1; 72 hours; read-out: IC50 REC-1 T474I
Method in brief: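 REC-1 cells carrying CRISPR knock-in mutant BTK, single-cell cloned and sequence-confirmed, were exposed to compound for 72 h and read by ATPlite luminescence. Percentage growth was calculated against the signal at the start of incubation and against untreated 0.3% DMSO wells as maximum growth.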

[2] = molecular target: BTK T316A (Homo sapiens (Human), UniProt Q06187, T316A); assay: Binding kinetics measurements (Surface Plasmon Resonance) on BTK T316A; settings: for Kd: binding affinity by Surface Plasmon Resonance (SPR); for Tau (h) BTK T316A (Act): target residence time, SPR
Sequence of BTK T316A (Q06187 whole entry T316A): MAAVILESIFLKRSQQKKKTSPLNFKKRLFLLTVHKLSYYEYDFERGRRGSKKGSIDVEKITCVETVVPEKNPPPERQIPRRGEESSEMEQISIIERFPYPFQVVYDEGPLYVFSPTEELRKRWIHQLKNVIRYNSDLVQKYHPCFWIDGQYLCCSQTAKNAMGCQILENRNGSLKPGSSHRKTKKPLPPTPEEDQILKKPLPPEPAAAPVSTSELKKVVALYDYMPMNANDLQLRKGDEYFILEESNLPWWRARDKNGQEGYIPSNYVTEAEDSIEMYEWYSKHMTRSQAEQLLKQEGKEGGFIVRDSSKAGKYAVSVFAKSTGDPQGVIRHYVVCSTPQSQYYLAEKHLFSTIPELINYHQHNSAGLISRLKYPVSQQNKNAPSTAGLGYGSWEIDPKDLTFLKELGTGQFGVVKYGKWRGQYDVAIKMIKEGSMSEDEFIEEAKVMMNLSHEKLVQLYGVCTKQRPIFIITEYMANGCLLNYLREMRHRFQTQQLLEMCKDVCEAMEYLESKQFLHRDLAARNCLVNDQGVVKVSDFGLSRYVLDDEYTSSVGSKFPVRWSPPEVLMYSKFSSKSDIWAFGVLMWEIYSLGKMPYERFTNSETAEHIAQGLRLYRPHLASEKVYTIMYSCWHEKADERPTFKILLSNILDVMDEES
Experimental: (§1) Binding kinetics measurements on wt-BTK, BTK […], BTK […], BTK […] and BTK […] (Surface Plasmon Resonance) Streptavidin-coated chips (Cat. No. BR100531), disposables and maintenance kits for Biacore were purchased from Cytiva (Eindhoven, The Netherlands). […] Remaining streptavidin was blocked with biocytin. Immobilization was performed at 4° C. Subsequent assay steps were conducted at 22° C. After changing buffer to Biacore buffer with 1% (v/v) dimethylsulfoxide (DMSO), a pre-run was performed for a period of at least 30 min at a flow rate of 30 μl/min to obtain a stable surface. The kinetic constants of the compounds were determined with single cycle kinetics with five consecutive injections with an increasing compound concentration with ranges of 3.16-316 nM. […] To circumvent problems of mass transport limitation, a flow rate of 30 μl/min was used. A blank run with the same conditions was performed before the compound was injected. The SPR sensorgrams were analyzed with Biacore Evaluation Software by using a method of double referencing. First the reference channel was subtracted from the channel containing immobilized protein. Subsequently, the reference curve obtained with buffer injections was subtracted. […] Compounds that bound according to an induced fit model were fitted with a two-state reaction model. The kinetic constants (ka, […], KD) of duplicates were geometrically averaged. […] Target residence for an induced fit model was calculated as described (Tummino and Copeland, 2008).

[3] = test system: wt-REC-1 mantle cell lymphoma cells; assay: Cell proliferation assay wt-REC-1 (ATPlite, 72 hours); assay type: cell-based; settings: 72 h; read-out: IC50 wt-REC-1
Method in brief: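 Luminescent viability read over 72 h, start-of-incubation signal recorded separately to separate growth from cell death. Percentage growth referenced to compound-free 0.3% DMSO wells; IC50 from 4-parameter logistic fit.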

[4] = molecular target: full-length wt-BTK enzyme (Homo sapiens (Human), UniProt Q06187); assay: Biochemical kinase assay wt-BTK (IMAP)
Sequence of full-length wt-BTK enzyme (Q06187 whole entry): as the sequence (Q06187 whole entry T316A) above, with A316T counted along it
Method in brief: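 Compound and enzyme (final 1.2 nM) were pre-incubated for 1 h at RT, after which the reaction was started with 4 μM ATP plus 50 nM fluorescein-MBP substrate peptide. After 2 h in the dark, the IMAP progressive binding reagent stopped the reaction, and phosphorylation was read by fluorescence polarization.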

[5] = molecular target: BTK T474S (Homo sapiens (Human), UniProt Q06187, T474S); assay: Binding kinetics measurements (Surface Plasmon Resonance) on BTK T474S; settings: for residence time: SPR binding kinetics, BTK T474S, read-out: Tau (h) BTK T474S (Act), target residence time (converted); for Kd: binding affinity by Surface Plasmon Resonance (SPR)
Sequence of BTK T474S (Q06187 whole entry T474S): as the sequence (Q06187 whole entry T316A) above, with A316T, T474S counted along it
Experimental: as §1

[6] = molecular target: wt-BTK (Homo sapiens (Human), UniProt Q06187); assay: Binding kinetics measurements (Surface Plasmon Resonance) on wt-BTK; settings: for Kd: binding affinity by Surface Plasmon Resonance (SPR); for Tau (h) wt-BTK (Act): target residence time, SPR
Sequence of wt-BTK (Q06187 whole entry): as the sequence (Q06187 whole entry T316A) above, with A316T counted along it
Method in brief: (§2)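 Constants come from single-cycle kinetics: five rising compound injections (3.16-316 nM) at 30 μl/min and 22° C over streptavidin-captured BTK (wild type or mutant), running buffer containing 1% DMSO. Double referencing applied; induced-fit binders fitted to a two-state model; duplicates geometrically averaged; residence time derived.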

[7] = test system: wt-TMD8 diffuse large B-cell lymphoma cells; assay: Cell proliferation assay wt-TMD8 (ATPlite, 120 hours); assay type: cell-based; settings: B-cell; wt-TMD8 cells, 120 hours, ATPlite; read-out: IC50 wt-TMD8
Method in brief: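 Readout is percentage growth from ATPlite 1Step luminescence after 5 days (120 h) compound treatment of wt-TMD8 lymphoma cells (1600/well, RPMI-1640 + 10% FBS). Time-zero signal separates growth inhibition from cell kill; 0.3% DMSO wells without compound define maximal growth.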

[8] = molecular target: full-length BTK C481S enzyme (Homo sapiens (Human), UniProt Q06187, C481S); assay: Biochemical kinase assay BTK C481S (IMAP)
Sequence of full-length BTK C481S enzyme (Q06187 whole entry C481S): as the sequence (Q06187 whole entry T316A) above, with A316T, C481S counted along it
Method in brief: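 IC50 values come from IMAP fluorescence polarization after quenching with progressive binding solution. The reaction ran 2 h at room temperature in the dark with 1.2 nM full-length C481S enzyme, 7 μM ATP and 50 nM fluorescein-labelled MBP-derived peptide, following a 1 h dark pre-incubation of compound with enzyme.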

[9] = molecular target: BTK T474I (Homo sapiens (Human), UniProt Q06187, T474I); assay: Binding kinetics measurements (Surface Plasmon Resonance) on BTK T474I; settings: for Kd: binding affinity by Surface Plasmon Resonance (SPR); for Tau (h) BTK T474I (Act): target residence time, SPR
Sequence of BTK T474I (Q06187 whole entry T474I): as the sequence (Q06187 whole entry T316A) above, with A316T, T474I counted along it
Method in brief: as §2

[10] = molecular target: BTK C481S (Homo sapiens (Human), UniProt Q06187, C481S); assay: Binding kinetics measurements (Surface Plasmon Resonance) on BTK C481S; settings: for Kd: binding affinity by Surface Plasmon Resonance (SPR); for Tau (h) BTK C418S (Act): target residence time for BTK C481S, SPR
Sequence of BTK C481S (Q06187 whole entry C481S): as the sequence (Q06187 whole entry T316A) above, with A316T, C481S counted along it
Method in brief: as §2

Kd [2] [nM]	Tau (h) BTK T316A (Act) [2] [h]	IC50 [3] [nM]	IC50 [4] [nM]	residence time [5] [h]	Kd [5] [nM]	Kd [6] [nM]	Tau (h) wt-BTK (Act) [6] [h]	IC50 [7] [nM]	IC50 [8] [nM]	Kd [9]	Kd [10] [nM]	Tau (h) BTK C418S (Act) [10] [h]	Tau (h) BTK T474I (Act) [9] [h]	Structure (SMILES)	IC50 [1] [nM]
< 5	2.48	100 to 1000	< 5	1.5	< 3	< 5	2.52	< 100	< 5	< 2 nM	< 5	1.51	–	C[C@H]1CC(=O)N[C@@H]2CCCC(C2)n2nc(-c3ccc(C(=O)Nc4cc(C(F)(F)F)ccn4)cc3)c3c(N)ncc(c32)/C=C/CCN1 [Example 150]	100 to 500
< 5	6.08	100 to 1000	< 5	1.24	< 3	< 5	2.36	< 100	< 5	< 2 nM	< 5	5.84	2.11	C[C@H]1CC(=O)N[C@@H]2CCC[C@H](C2)n2nc(-c3ccc(C(=O)Nc4cc(C(F)(F)F)ccn4)cc3)c3c(N)ncc(c32)/C=C/CCN1C [Example 152]	< 100
< 5	–	< 100	< 5	–	< 3	< 5	–	< 100	< 5	10 to 50 nM and < 5 nM	< 5	–	–	Nc1ncc2c3c1c(-c1ccc(C(=O)Nc4ccccn4)cc1)nn3[C@@H]1CCC[C@H](C1)C(=O)NCCCC/C=C\C2 [Example 87b]	100 to 500
–	3.41	< 100	< 5	6.88	–	–	10.55	< 100	< 5	–	–	>24	0.90	N#Cc1ccnc(NC(=O)c2ccc(-c3nn4c5c(cnc(N)c35)/C=C/COCCC(=O)N[C@@H]3CCC[C@@H]4C3)cc2)c1 [Example 164]	< 100
< 5	10.42	< 100	< 5	6.36	< 3	< 5	5.28	< 100	< 5	< 2 nM	< 5	1.73	–	Nc1ncc2c3c1c(-c1ccc(C(=O)Nc4cc(C(F)(F)F)ccn4)cc1)nn3[C@@H]1CCC[C@H](C1)NC(=O)[C@@H]1CCN(C/C=C/2)C1 [Example 147]	< 100
< 5	2.18	< 100	< 5	18.9	< 3	< 5	4.83	< 100	< 5	< 2 nM	< 5	4.28	2.35	C[C@@H]1C[C@@H](C)n2nc(-c3ccc(C(=O)Nc4cc(C(F)(F)F)ccn4)cc3)c3c(N)ncc(c32)/C=C/CCCCCC(=O)N1 [Example 172]	< 100
< 5	5.27	< 100	< 5	1.47	< 3	< 5	5.15	< 100	< 5	< 2 nM	< 5	2.42	3.34	C[C@@H]1CC(=O)N[C@@H]2CCC[C@H](C2)n2nc(-c3ccc(C(=O)Nc4cc(C(F)(F)F)ccn4)cc3)c3c(N)ncc(c32)/C=C/CCO1 [Example 157]	< 100

Second part, the compound before the results:

Structure (SMILES)	Kd [2] [nM]	Tau (h) BTK T316A (Act) [2] [h]	IC50 [3] [nM]	IC50 [4] [nM]	residence time [5] [h]	Kd [5] [nM]	Kd [6] [nM]	Tau (h) wt-BTK (Act) [6] [h]	IC50 [7] [nM]	IC50 [8] [nM]	Kd [9]	Kd [10] [nM]	Tau (h) BTK C418S (Act) [10] [h]	Tau (h) BTK T474I (Act) [9] [h]	IC50 [1] [nM]
Nc1ncc2c3c1c(-c1ccc(C(=O)Nc4cc(C(F)(F)F)ccn4)cc1)nn3[C@@H]1CCC[C@H](C1)NC(=O)COCC/C=C/2 [Example 6]	< 5	2.28	< 100	< 5	4.41	< 3	< 5	6.80	< 100	< 5	< 2 nM	< 5	2.91	–	100 to 500
C[C@@H]1CC(=O)N[C@@H]2CCC[C@H](C2)n2nc(-c3ccc(C(=O)Nc4cc(C(F)(F)F)ccn4)cc3)c3c(N)ncc(c32)/C=C/CN1C [Example 44]	< 5	2.47	< 100	< 5	3.27	< 3	< 5	2.32	< 100	< 5	< 2 nM	< 5	–	0.87	< 100
C[C@@H]1CCn2nc(-c3ccc(C(=O)Nc4cc(C(F)(F)F)ccn4)cc3)c3c(N)ncc(c32)/C=C/COCCC(=O)N1 [Example 71]	< 5	4.64	< 100	< 5	4.32	< 3	< 5	7.08	< 100	< 5	< 2 nM	< 5	4.52	0.52	100 to 500
CN1C/C=C/c2cnc(N)c3c(-c4ccc(C(=O)Nc5cc(C(F)(F)F)ccn5)cc4)nn(c23)[C@@H]2CCC[C@H](C2)NC(=O)CCCC1 [Example 20]	< 5	2.01	100 to 1000	< 5	2.75	< 3	< 5	2.79	< 100	< 5	< 2 nM	< 5	1.05	–	500 to 10000
Nc1ncc2c3c1c(-c1ccc(C(=O)Nc4ccccn4)cc1)nn3C1CCC[C@H](C1)NC(=O)CCCCC/C=C/2 [Example 24]	–	2.66	< 100	< 5	3.19	–	–	4.78	< 100	< 5	–	–	10.68	1.26	< 100
C[C@@H]1CCn2nc(-c3ccc(C(=O)Nc4cc(C(F)(F)F)ccn4)cc3)c3c(N)ncc(c32)/C=C/CCCCC(=O)N1 [Example 54]	< 5	–	< 100	–	4.37	< 3	< 5	–	< 100	–	< 2 nM	< 5	–	–	100 to 500
